Experimental data from patent US12077503B2, “Substituted cyclic amides and their use as herbicides” (FMC CORPORATION, priority 2015, dated 2024).

Experiments:
Format in all cases: in vivo
[1] = system: sedge, umbrella (small-flower umbrella sedge, Cyperus difformis); test: Test B flooded paddy test; details: 250 g ai/ha, Flood, 0 to 100 scale where 0 is no effect and 100 is complete control
Outline: (§1)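 Plants at 2-leaf stage flooded to 3 cm above soil, with compounds applied directly to paddy water and that depth maintained. Plants kept in greenhouse 13–15 d. Visual rating versus controls on a 0 (no effect) to 100 (complete control) scale.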

[2] = system: barnyardgrass (Echinochloa crus-galli); test: Test B flooded paddy test; details: 250 g ai/ha, Flood, 0 to 100 scale where 0 is no effect and 100 is complete control
Outline: as §1

[3] = system: ducksalad (Heteranthera limosa); test: Test B flooded paddy test; details: 250 g ai/ha, Flood, 0 to 100 scale where 0 is no effect and 100 is complete control
Outline: as §1

rice (Oryra sativa) = test: Test B flooded paddy test; details: 250 g ai/ha, Flood, 0 to 100 scale where 0 is no effect and 100 is complete control
Outline: as §1

[4] = system: barnyardgrass (Echinochloa crus-galli); test: Test A preemergence
Outline: (§2)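 Seeded soil received test chemicals as a preemergence directed spray, and seedlings at one to two leaves, 2–10 cm tall, received them postemergence, in a non-phytotoxic, surfactant-containing solvent mixture. Pots were held in a greenhouse for approximately 10 d, then rated for injury from 0, no effect, to 100, complete control.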

Kochia (Kochia scoparia) [5] = test: Test A preemergence
Outline: as §2

[6] = system: ragweed (common ragweed, Ambrosia elatior); test: Test A preemergence
Outline: as §2

[7] = system: ryegrass, Italian (Italian ryegrass, Lolium multiflorum); test: Test A preemergence
Outline: as §2

[8] = system: giant foxtail (Setaria faberii); test: Test A preemergence
Outline: as §2

[9] = system: pigweed (Amaranthus retroflexus); test: Test A preemergence
[10] = system: barnyardgrass (Echinochloa crus-galli); test: Test A postemergence; details: for Plant response rating, Barnyardgrass: 0 to 100 scale (0 no effect, 100 complete control)
Outline: as §2

Kochia (Kochia scoparia) [11] = test: Test A postemergence; details: for Plant response rating, Kochia: 0 to 100 scale (0 no effect, 100 complete control)
Outline: as §2

[12] = system: ragweed (common ragweed, Ambrosia elatior); test: Test A postemergence; details: postemergence; for Plant response rating, Ragweed: 0 to 100 scale (0 no effect, 100 complete control)
Outline: as §2

[13] = system: Galium (catchweed bedstraw, Galium aparine); test: Test A postemergence; details: for Plant response rating, Galium: 0 to 100 scale (0 no effect, 100 complete control)
Outline: as §2

[14] = system: ryegrass, Italian (Italian ryegrass, Lolium multiflorum); test: Test A postemergence; details: postemergence; for Plant response rating, Ryegrass, Italian: 0 to 100 scale (0 no effect, 100 complete control)
Outline: as §2

[15] = system: wheat (Triticum aestivum); test: Test A postemergence; details: postemergence; for Plant response rating, Wheat: 0 to 100 scale (0 no effect, 100 complete control)
Outline: as §2

[16] = system: giant foxtail (Setaria faberii); test: Test A postemergence; details: for Plant response rating, Foxtail, Giant: 0 to 100 scale (0 no effect, 100 complete control)
Outline: as §2

corn (Zea mays) = test: Test A postemergence; details: for Plant response rating, Corn: 0 to 100 scale (0 no effect, 100 complete control)
Outline: as §2

[17] = system: blackgrass (Alopecurus myosuroides); test: Test A postemergence; details: for Plant response rating, Blackgrass: 0 to 100 scale (0 no effect, 100 complete control)
Outline: as §2

[18] = system: pigweed (Amaranthus retroflexus); test: Test A postemergence; details: postemergence; for Plant response rating, Pigweed: 0 to 100 scale (0 no effect, 100 complete control)
Outline: as §2

[19] = 125 g ai/ha, Preemergence, visual injury after approximately 10 d, 0 to 100 scale where 0 is no effect and 100 is complete control
[20] = 500 g ai/ha, preemergence, 0 to 100 scale, 0 = no effect, 100 = complete control
[21] = 125 g ai/ha, postemergence, visual rating after approx. 10 d
[22] = 500 g ai/ha, postemergence, visual injury, approx. 10 d
[23] = 125 g ai/ha, visual rating after approx. 10 d
[24] = 500 g ai/ha, visual injury, approx. 10 d

COc1ccc(C(F)(F)F)cc1[C@H]1CN(C)C(=O)[C@@H]1C(=O)Nc1ccccc1F [Compound 1183]
pest or weed control at 250 g/ha ([1]; Cyperus difformis, read-out: Sedge, Umbrella plant response rating): 0% | pest or weed control at 250 g/ha ([2]; Echinochloa crus-galli, read-out: Barnyardgrass plant response rating): 95% | pest or weed control at 250 g/ha ([3]; Heteranthera limosa, read-out: Ducksalad plant response rating): 95% | pest or weed control at 250 g/ha (rice (Oryra sativa); Oryza sativa, read-out: Rice plant response rating): 10% | pest or weed control at 31 g/ha ([4]; Echinochloa crus-galli, pre-emergence, 240 h, 31 g ai/ha, Preemergence, 0 to 100 scale where 0 is no effect and 100 is complete control, read-out: Barnyardgrass plant response rating): 90% | pest or weed control at 125 g/ha ([4]; Echinochloa crus-galli, pre-emergence, 240 h, 125 g ai/ha, preemergence, visual injury rating, 0 to 100 scale where 0 is no effect and 100 is complete control, approximately 10 d, read-out: Barnyardgrass plant response rating): 90% | pest or weed control at 31 g/ha (Kochia (Kochia scoparia) [5]; Bassia scoparia, pre-emergence, 240 h, 31 g ai/ha, Preemergence, 0 to 100 scale where 0 is no effect and 100 is complete control, read-out: Kochia plant response rating): 0% | pest or weed control at 125 g/ha (Kochia (Kochia scoparia) [5]; Bassia scoparia, pre-emergence, 240 h, 125 g ai/ha, preemergence, visual injury rating, 0 to 100 scale where 0 is no effect and 100 is complete control, approximately 10 d, read-out: Kochia plant response rating): 0% | pest or weed control at 31 g/ha ([6]; Ambrosia artemisiifolia, pre-emergence, 240 h, 31 g ai/ha, Preemergence, 0 to 100 scale where 0 is no effect and 100 is complete control, read-out: Ragweed plant response rating): 0% | pest or weed control at 125 g/ha ([6]; Ambrosia artemisiifolia, pre-emergence, 240 h, 125 g ai/ha, preemergence, visual injury rating, 0 to 100 scale where 0 is no effect and 100 is complete control, approximately 10 d, read-out: Ragweed plant response rating): 0% | pest or weed control at 31 g/ha ([7]; Lolium multiflorum, pre-emergence, 240 h, 31 g ai/ha, Preemergence, 0 to 100 scale where 0 is no effect and 100 is complete control, read-out: Ryegrass, Italian plant response rating): 20% | pest or weed control at 125 g/ha ([7]; Lolium multiflorum, pre-emergence, 240 h, 125 g ai/ha, preemergence, visual injury rating, 0 to 100 scale where 0 is no effect and 100 is complete control, approximately 10 d, read-out: Ryegrass, Italian plant response rating): 50% | pest or weed control at 31 g/ha ([8]; Setaria faberi, pre-emergence, 240 h, 31 g ai/ha, Preemergence, 0 to 100 scale where 0 is no effect and 100 is complete control, read-out: Foxtail, Giant plant response rating): 80% | pest or weed control at 125 g/ha ([8]; Setaria faberi, pre-emergence, 240 h, 125 g ai/ha, preemergence, visual injury rating, 0 to 100 scale where 0 is no effect and 100 is complete control, approximately 10 d, read-out: Foxtail, Giant plant response rating): 90% | pest or weed control at 31 g/ha ([9]; Amaranthus retroflexus, pre-emergence, 240 h, 31 g ai/ha, Preemergence, 0 to 100 scale where 0 is no effect and 100 is complete control, read-out: Pigweed plant response rating): 0% | pest or weed control at 125 g/ha ([9]; Amaranthus retroflexus, pre-emergence, 240 h, 125 g ai/ha, preemergence, visual injury rating, 0 to 100 scale where 0 is no effect and 100 is complete control, approximately 10 d, read-out: Pigweed plant response rating): 0% | pest or weed control at 125 g/ha ([10]; Echinochloa crus-galli, post-emergence, 240 h, 125 g ai/ha, postemergence, visual injury vs untreated controls after approx. 10 d, 0 = no effect, 100 = complete control, read-out: Barnyardgrass plant response rating (0 to 100 scale)): 90% | pest or weed control at 31 g/ha ([10]; Echinochloa crus-galli, post-emergence, 240 h, Postemergence, 31 g ai/ha, visual injury after approx. 10 d, 0 to 100 scale, 0 no effect, 100 complete control, read-out: Plant response rating, Barnyardgrass): 80% | pest or weed control at 125 g/ha (Kochia (Kochia scoparia) [11]; Bassia scoparia, post-emergence, 240 h, 125 g ai/ha, postemergence, visual injury vs untreated controls after approx. 10 d, 0 = no effect, 100 = complete control, read-out: Kochia plant response rating (0 to 100 scale)): 0% | pest or weed control at 31 g/ha (Kochia (Kochia scoparia) [11]; Bassia scoparia, post-emergence, 240 h, Postemergence, 31 g ai/ha, visual injury after approx. 10 d, 0 to 100 scale, 0 no effect, 100 complete control, read-out: Plant response rating, Kochia): 0% | pest or weed control at 125 g/ha ([12]; Ambrosia artemisiifolia, post-emergence, 240 h, 125 g ai/ha, visual injury vs untreated controls after approx. 10 d, 0 = no effect, 100 = complete control, read-out: Ragweed plant response rating (0 to 100 scale)): 0% | pest or weed control at 125 g/ha ([13]; Galium, post-emergence, 240 h, 125 g ai/ha, postemergence, visual injury vs untreated controls after approx. 10 d, 0 = no effect, 100 = complete control, read-out: Galium plant response rating (0 to 100 scale)): 0% | pest or weed control at 31 g/ha ([13]; Galium, post-emergence, 240 h, Postemergence, 31 g ai/ha, visual injury after approx. 10 d, 0 to 100 scale, 0 no effect, 100 complete control, read-out: Plant response rating, Galium): 0% | pest or weed control at 125 g/ha ([14]; Lolium multiflorum, post-emergence, 240 h, 125 g ai/ha, visual injury vs untreated controls after approx. 10 d, 0 = no effect, 100 = complete control, read-out: Ryegrass, Italian plant response rating (0 to 100 scale)): 50% | plant injury at 125 g/ha ([15]; Triticum aestivum, post-emergence, 240 h, 125 g ai/ha, visual injury vs untreated controls after approx. 10 d, 0 = no effect, 100 = complete control, read-out: Wheat plant response rating (0 to 100 scale)): 50% | pest or weed control at 125 g/ha ([16]; Setaria faberi, post-emergence, 240 h, 125 g ai/ha, postemergence, visual injury vs untreated controls after approx. 10 d, 0 = no effect, 100 = complete control, read-out: Foxtail, Giant plant response rating (0 to 100 scale)): 80% | pest or weed control at 31 g/ha ([16]; Setaria faberi, post-emergence, 240 h, Postemergence, 31 g ai/ha, visual injury after approx. 10 d, 0 to 100 scale, 0 no effect, 100 complete control, read-out: Plant response rating, Foxtail, Giant): 70% | plant injury at 125 g/ha (corn (Zea mays); Zea mays, post-emergence, 240 h, 125 g ai/ha, postemergence, visual injury vs untreated controls after approx. 10 d, 0 = no effect, 100 = complete control, read-out: Corn plant response rating (0 to 100 scale)): 60% | Corn plant response rating (crop injury, 0 = no effect, 100 = complete kill) at 31 g/ha (corn (Zea mays); Zea mays, post-emergence, 240 h, Postemergence, 31 g ai/ha, visual injury after approx. 10 d, 0 to 100 scale, 0 no effect, 100 complete control): 30% | pest or weed control at 125 g/ha ([17]; Alopecurus myosuroides, post-emergence, 240 h, 125 g ai/ha, postemergence, visual injury vs untreated controls after approx. 10 d, 0 = no effect, 100 = complete control, read-out: Blackgrass plant response rating (0 to 100 scale)): 50% | pest or weed control at 31 g/ha ([17]; Alopecurus myosuroides, post-emergence, 240 h, Postemergence, 31 g ai/ha, visual injury after approx. 10 d, 0 to 100 scale, 0 no effect, 100 complete control, read-out: Plant response rating, Blackgrass): 0% | pest or weed control at 125 g/ha ([18]; Amaranthus retroflexus, post-emergence, 240 h, 125 g ai/ha, visual injury vs untreated controls after approx. 10 d, 0 = no effect, 100 = complete control, read-out: Pigweed plant response rating (0 to 100 scale)): 0%

CC(C)Oc1cccc(C2CN(C)C(=O)C2C(=O)Nc2ccccc2S(C)(=O)=O)c1 (centres unmarked) [Compound 653]
Plant response rating, Sedge, Umbrella ([1]; 13 to 15 d): 0 | Plant response rating, Barnyardgrass ([2]; 13 to 15 d): 30 | Plant response rating, Ducksalad ([3]; 13 to 15 d): 40 | Plant response rating, Rice (rice (Oryra sativa); 13 to 15 d): 0 | Plant response rating, Barnyardgrass [4, 19]: 90 | Plant response rating, Barnyardgrass [4, 20]: 90 | Plant response rating, Kochia (Kochia (Kochia scoparia) [5]; [19]): 0 | Plant response rating, Kochia (Kochia (Kochia scoparia) [5]; [20]): 70 | Plant response rating, Ragweed [6, 19]: 50 | Plant response rating, Ragweed [6, 20]: 80 | Plant response rating, Ryegrass, Italian [7, 19]: 70 | Plant response rating, Ryegrass, Italian [7, 20]: 70 | Plant response rating, Foxtail, Giant [8, 19]: 90 | Plant response rating, Foxtail, Giant [8, 20]: 100 | Plant response rating, Pigweed [9, 19]: 70 | Plant response rating, Pigweed [9, 20]: 90 | Plant response rating, Barnyardgrass [10, 21]: 60 | Plant response rating, Barnyardgrass [10, 22]: 90 | Plant response rating, Kochia (Kochia (Kochia scoparia) [11]; [21]): 0 | Plant response rating, Kochia (Kochia (Kochia scoparia) [11]; [22]): 0 | Plant response rating, Ragweed [12, 23]: 0 | Plant response rating, Ragweed [12, 24]: 0 | Plant response rating, Galium [13, 21]: 40 | Plant response rating, Galium [13, 22]: 50 | Plant response rating, Ryegrass, Italian [14, 23]: 40 | Plant response rating, Ryegrass, Italian [14, 24]: 60 | Plant response rating, Wheat [15, 23]: 30 | Plant response rating, Wheat [15, 24]: 60 | Plant response rating, Foxtail, Giant [16, 21]: 60 | Plant response rating, Foxtail, Giant [16, 22]: 90 | Plant response rating, Corn (corn (Zea mays); [21]): 0 | Plant response rating, Corn (corn (Zea mays); [22]): 30 | Plant response rating, Blackgrass [17, 21]: 50 | Plant response rating, Blackgrass [17, 22]: 70 | Plant response rating, Pigweed [18, 23]: 0 | Plant response rating, Pigweed [18, 24]: 0
